Experimental data from patent publication US6448269B1 (Eli Lilly and Company, priority 1993, dated 2002).
Structures can show the parent of a compound that is named as a salt.

Experiments:
[1] = system: human platelet-rich plasma; test: Platelet aggregation assay (Aggregation-Human PRP/ADP); assay type: cell-based; settings: 1 min; human platelet-rich plasma incubated with compound 1 minute at 37° C.; ADP-induced aggregation; read-out: Agg: Human PRP/ADP IC50uM
Experimental: Platelet-rich plasma was prepared from healthy human volunteers for use in determining inhibition of platelet aggregation by the compounds.
Platelet-rich plasma was prepared at room temperature by centrifugation of the citrated whole blood at 100×g for 12 minutes. The platelet rich plasma contained approximately 200-400,000 platelets/μl.
Platelet-poor plasma was prepared by centrifugation of citrated whole blood at 12,000×g for 2 minutes.
Platelet aggregation was assayed in a 4-channel platelet aggregation profiler (PAP-4, Biodata, Hatboro, Pa.) according to the manufacturers directions. Inhibition of platelet aggregation was studied by adding varying amounts of […] to stirred human platelet-rich plasma. Specifically, the human platelet-rich plasma was incubated with the compound being tested for 1 minute at 37° C. prior to the addition of a variety of aggregating agents most often ADP 5 μM, but also 1 μg/ml collagen, 1 μM U46619 and 0.3 μM platelet activating factor.

GPIIb-IIIa = target: T1, GPIIb-IIIa (Homo sapiens, UniProt P05106+P08514); test: ELISA IIb-IIIa assay (fibrinogen binding to immobilized GPIIb-IIIa); settings: purified platelet GPIIb-IIIa receptor coated on ELISA plates; biotin-labeled fibrinogen 10 nM, 3 hours at 25° C.
T1 construct: Purified platelet GPIIb-IIIa receptor was prepared as described by Fitzgerald; from tissue; host or cells: platelets
T1 sequence (P08514 32-887 limits assumed): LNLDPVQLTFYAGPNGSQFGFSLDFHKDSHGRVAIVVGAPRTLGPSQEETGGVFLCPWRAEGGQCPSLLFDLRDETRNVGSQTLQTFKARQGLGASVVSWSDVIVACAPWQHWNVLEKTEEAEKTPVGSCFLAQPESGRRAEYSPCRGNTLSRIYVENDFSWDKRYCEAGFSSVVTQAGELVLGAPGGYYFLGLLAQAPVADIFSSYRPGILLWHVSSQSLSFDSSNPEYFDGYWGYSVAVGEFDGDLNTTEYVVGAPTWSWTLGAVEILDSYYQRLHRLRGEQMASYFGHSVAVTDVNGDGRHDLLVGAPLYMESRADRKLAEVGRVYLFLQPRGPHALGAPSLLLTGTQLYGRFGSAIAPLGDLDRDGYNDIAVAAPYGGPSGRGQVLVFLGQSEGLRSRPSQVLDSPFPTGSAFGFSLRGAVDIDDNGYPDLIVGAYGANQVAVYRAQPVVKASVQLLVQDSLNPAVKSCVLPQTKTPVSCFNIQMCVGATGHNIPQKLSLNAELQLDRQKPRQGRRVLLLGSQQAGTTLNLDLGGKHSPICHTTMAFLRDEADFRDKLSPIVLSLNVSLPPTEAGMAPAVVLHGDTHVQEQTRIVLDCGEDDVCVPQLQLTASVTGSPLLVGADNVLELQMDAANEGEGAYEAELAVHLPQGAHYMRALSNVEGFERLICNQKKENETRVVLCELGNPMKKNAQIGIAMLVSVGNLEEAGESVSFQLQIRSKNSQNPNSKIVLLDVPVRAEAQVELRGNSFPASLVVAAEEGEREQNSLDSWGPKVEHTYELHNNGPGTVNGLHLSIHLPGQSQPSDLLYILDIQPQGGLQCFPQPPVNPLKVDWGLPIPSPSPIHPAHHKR
T1 sequence (P05106 27-788): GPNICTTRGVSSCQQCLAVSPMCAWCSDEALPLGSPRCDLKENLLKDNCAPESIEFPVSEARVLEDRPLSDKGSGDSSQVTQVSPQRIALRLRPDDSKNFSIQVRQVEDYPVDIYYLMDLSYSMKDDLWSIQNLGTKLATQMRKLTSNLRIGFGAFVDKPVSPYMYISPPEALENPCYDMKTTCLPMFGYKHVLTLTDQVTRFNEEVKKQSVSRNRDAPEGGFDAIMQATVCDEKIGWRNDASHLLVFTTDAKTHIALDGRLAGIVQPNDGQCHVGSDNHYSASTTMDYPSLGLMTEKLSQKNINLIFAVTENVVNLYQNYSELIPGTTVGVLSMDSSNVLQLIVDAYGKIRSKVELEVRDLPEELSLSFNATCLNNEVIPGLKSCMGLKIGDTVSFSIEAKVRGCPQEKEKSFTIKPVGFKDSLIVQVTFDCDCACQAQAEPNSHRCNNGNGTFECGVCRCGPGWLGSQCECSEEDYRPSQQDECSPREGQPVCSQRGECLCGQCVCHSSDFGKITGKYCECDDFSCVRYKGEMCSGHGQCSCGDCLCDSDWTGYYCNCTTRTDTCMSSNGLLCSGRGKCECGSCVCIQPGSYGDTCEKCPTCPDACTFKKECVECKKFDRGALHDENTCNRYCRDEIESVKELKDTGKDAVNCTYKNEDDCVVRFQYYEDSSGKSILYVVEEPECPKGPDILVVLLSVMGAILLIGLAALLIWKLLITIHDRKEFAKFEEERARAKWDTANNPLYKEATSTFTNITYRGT
Experimental: In the following assay, GPIIb-IIIa is prepared in purified form, by a method such as described by Fitzgerald, L. A., et al., Anal Biochem (1985) 151:169-177, (the disclosure of which is incorporated herein by reference). GPIIb-IIIa is coated onto microtiter plates. The coated support is then contacted with fibrinogen and with the test material (e.g., compounds of Formula I) and incubated for a sufficient time to permit maximal binding of fibrinogen to the immobilized GPIIb-IIIa. Fibrinogen is typically provided at a concentration of about 5-50 nM and the test material can, if desired, be added at a series of dilution. Typical incubations are 2 to 4 hours at 25° C., the time and temperature being interdependent.
After incubation, the solution containing the fibrinogen and test material is removed and the level of binding of fibrinogen measured by quantitating bound fibrinogen to GPIIb-IIIa. Any suitable means of detection may be used, but it is convenient to employ labeled fibrinogen, for example using biotinylated labels. Such methods are well known in the art.
Purified platelet GPIIb-IIIa receptor was prepared as described by Fitzgerald, L. A., et al., Anal Biochem (1985) 151:169-177 (1985). Vitronectin receptor was prepared as described by Smith, J. W., J. Biol Chem (1988) 263:18726-18731. After purification, the receptors were stored in 0.1% Triton X-100 at 0.1-1.0 mg/ml.
The receptors were coated to the wells of 96-well flat-bottom ELISA plates (Linbro EIA-Plus microtiter plate, Flow Laboratories) after diluting 1:200 with a solution of 20 mM Tris-HCl, 150 mM NaCl, 1 mM CaCl2, pH 7.4, to reduce the Triton X-100 concentration to below its critical micellar concentration and adding an aliquot of 100 ul to each well. The wells were all allowed to incubate overnight at 4° C., and then aspirated to dryness. Additional sites were blocked by the addition of bovine serum albumin (BSA) at 35 mg/ml in the above buffer for 2 hours at 30° C. to prevent nonspecific binding. The wells were then washed once with binding buffer ([…] Tris-HCl, 100 mM NaCl 2 mM CaCl2, 1 mg/ml BSA).
The corresponding ligands (fibrinogen, von Willebrand Factor, or vitronectin) were conjugated to biotin using commercially available reagents and standard protocols. The labeled ligands were added to the receptor-coated wells at final concentration of 10 nM (100 ul/well) and incubated for 3 hours at 25° C. in the presence or absence of the test samples. After incubation, the wells are aspirated to dryness and bound ligand is quantitated.
The bound protein is detected by the addition of antibiotin antibody conjugated to alkaline phosphatase followed by addition of substrate (p-nitrophenyl phosphate), and determination of the optical density of each well at […]. Decreased color development is observed in wells incubated with test samples which inhibit binding of ligand to receptor.

Structure (SMILES)	IC50 [1] [µM]	IC50 (GPIIb-IIIa) [nM]
CCCCCCNC(=O)C(CC(=O)O)N1CCc2cc(OCc3ccc(C(=N)N)cc3)ccc2C1=O (racemic) [Example 5, (+−)-6-[[4-(Aminoiminomethyl)phenyl]methoxy]-3,4-dihydro-1-oxo-beta[hexylamino Carbonyl]-2(1H)-isoquinolone Propanoic Acid Trifluoroacetate]	7	33
N=C(N)c1ccc(COc2ccc3c(c2)CCN(C(CC(=O)O)C(=O)NCc2ccccc2)C3=O)cc1 (racemic) [Example 6, (+−)-6-[[4-(Aminoiminomethyl)phenyl]methoxy]-3,4-dihydro-1-oxo-beta-[[(phenylmethyl)amino]carbonyl]-2(1H)-isoquinoline Propanoic Acid Trifluoroacetate]	0.7	50
COc1ccc(CCNC(=O)C(CC(=O)O)N2CCc3cc(OCc4ccc(C(=N)N)cc4)ccc3C2=O)cc1 (racemic) [Example 7, (+−)-6-[[4-(Aminoiminomethyl)phenyl]methoxy]-3,4-dihydro-1-oxo-beta-[[(4-methoxyphenyl Ethyl)amino]carbonyl]-2(1H)-isoquinoline Propanoic Acid Trifluoroacetate]	2	15
CNC(=O)C(CC(=O)O)N1CCc2cc(OCc3ccc(C(=N)N)cc3)ccc2C1=O (racemic) [Example 8, (+−)-6-[[4-(Aminoiminomethyl)phenyl]methoxy]-3,4-dihydro-beta-[(methylamino)carbonyl]-1-oxo-2(1H)-isoquinoline Propanoic Acid Trifluoroacetate]	0.55	80
N=C(N)c1ccc(COc2ccc3c(c2)CCN(C(CC(=O)O)C(=O)NCCC(=O)O)C3=O)cc1 (racemic) [Example 9, (+−)-6-[[4-(Aminoiminomethyl)phenyl]methoxy]-beta-[[(2-carboxyethyl)amino]carbonyl-3,4-dihydro-1-oxo-2(1H)-isoquinoline Propanoic Acid Trifluoroacetate]	0.85	85
CCOCCCC(CC(=O)O)N1CCc2cc(OCc3ccc(C(=N)N)cc3)ccc2C1=O (racemic) [Example 10, (+−)-6-[[4-(Aminoiminomethyl)phenyl]methoxy]-b-(3-ethoxypropyl)-3,4-dihydro-1-oxo-2(1H)-isoquinoline Propanoic Acid Trifluoroacetate]	0.47	61
CCCCC(CC(=O)O)N1CCc2cc(OCc3ccc(C(=N)N)cc3)ccc2C1=O (racemic) [Example 11, (+−)-6-[[4-(Aminoiminomethyl)phenyl]methoxy]-b-butyl-3,4-dihydro-1-oxo-2(1H)-isoquinoline Propanoic Acid Trifluoroacetate]	0.6	40
CCCCCC(CC(=O)O)N1CCc2cc(OCc3ccc(C(=N)N)cc3)ccc2C1=O (racemic) [Example 12, (+−)-6-[[4-(Aminoiminomethyl)phenyl]methoxyl]-3,4-dihydro-1-oxo-b-pentyl-2(1H)-isoquinolinepropanoic Acid Trifluoroacetate]	0.57	24
CCC(CC(=O)O)N1CCc2cc(OCc3ccc(C(=N)N)cc3)ccc2C1=O (racemic) [Example 14, (+−)-6-[[4-(Aminoiminomethyl)phenyl]methoxy]b-ethyl-3,4-dihydro-1-oxo-2(1H)-isoquinoline Propanoic Acid Trifluoroacetate]	0.4	45
CCCC(CC(=O)O)N1CCc2cc(OCc3ccc(C(=N)N)cc3)ccc2C1=O (racemic) [Example 15, (+−)-6-[[4-(Aminoiminomethyl)phenyl]methoxy]-3,4-dihydro-1-oxo-b-propyl-2 (1H)-isoquinoline Propanoic Acid Trifluoroacetate]	0.23	500
N=C(N)c1ccc(COc2ccc3c(c2)CCN(C(CC(=O)O)c2ccccc2)C3=O)cc1 (racemic) [Example 16, (+−)-6-[[4-(Aminoiminomethyl)phenyl]methoxy]-3,4-dihydro-1-oxo-b-phenyl-(1H)-isoquinoline Propanoic Acid Trifluoroacetate]	0.2	7
CCOC(=O)CC1CCc2cc(NC(=O)c3ccc(C(=N)NC(=O)OCC)cc3)ccc2O1 (racemic) [Example 68]	–	> 1000
O=C(O)CNC1CCc2cc(OCCCC3CCNCC3)ccc2C1 (stereo not shown) [Example 25]	–	220
N=C(N)c1ccc(COc2ccc3c(c2)CCC(NCC(=O)O)C3)cc1 (stereo not shown) [Example 26]	–	520
CC(=O)N(CC(=O)O)C1CCc2cc(OCc3ccc(C(=N)N)cc3)ccc2C1 (stereo not shown) [Example 27]	–	110
N=C(N)c1ccc(COc2ccc3cc(CC(=O)O)ccc3c2)cc1 [Example 33]	–	5
N=C(N)c1ccc(COc2ccc3c(c2)CCN(C(=O)C(=O)O)C3)cc1 [Example 44]	–	160
